Laboratory results reported in ChEMBL document CHEMBL1201862, “PubChem BioAssay data set” (2004).
Calls of active or inactive are those of the source.

Key:
[1] = biological target: T1, Short transient receptor potential channel 4 (Mus musculus, UniProt Q9QUQ5); experiment: mouse TRPC4 channel activators, dose response, cell-based, HEK293 TRPC4/mu-opioid, Fluo-4 calcium (AID 434937); assay type: functional
T1 sequence (Q9QUQ5 whole entry): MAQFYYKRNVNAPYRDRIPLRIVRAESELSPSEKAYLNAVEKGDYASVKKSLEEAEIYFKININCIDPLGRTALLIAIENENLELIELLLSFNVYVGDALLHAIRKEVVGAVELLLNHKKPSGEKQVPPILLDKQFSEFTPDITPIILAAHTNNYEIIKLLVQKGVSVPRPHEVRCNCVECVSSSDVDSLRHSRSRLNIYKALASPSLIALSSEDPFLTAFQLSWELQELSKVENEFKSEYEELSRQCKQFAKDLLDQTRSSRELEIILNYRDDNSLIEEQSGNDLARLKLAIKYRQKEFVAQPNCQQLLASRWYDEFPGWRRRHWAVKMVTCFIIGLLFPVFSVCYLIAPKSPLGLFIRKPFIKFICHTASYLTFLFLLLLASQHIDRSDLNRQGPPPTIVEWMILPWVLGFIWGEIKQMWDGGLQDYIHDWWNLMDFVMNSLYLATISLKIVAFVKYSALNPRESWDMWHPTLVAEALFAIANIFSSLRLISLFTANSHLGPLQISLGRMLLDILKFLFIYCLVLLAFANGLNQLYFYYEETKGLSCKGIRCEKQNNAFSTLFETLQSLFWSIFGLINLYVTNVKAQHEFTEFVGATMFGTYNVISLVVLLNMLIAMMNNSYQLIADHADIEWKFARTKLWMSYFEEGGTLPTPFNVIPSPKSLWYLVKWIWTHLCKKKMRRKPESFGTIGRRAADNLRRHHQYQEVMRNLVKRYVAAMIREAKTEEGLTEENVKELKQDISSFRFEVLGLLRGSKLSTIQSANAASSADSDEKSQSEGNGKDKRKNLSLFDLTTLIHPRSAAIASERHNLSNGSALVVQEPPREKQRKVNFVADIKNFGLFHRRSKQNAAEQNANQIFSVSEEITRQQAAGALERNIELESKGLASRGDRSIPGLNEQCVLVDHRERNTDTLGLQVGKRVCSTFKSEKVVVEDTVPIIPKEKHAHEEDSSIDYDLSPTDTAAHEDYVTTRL

[2] = test system: P388; experiment: cells; assay type: functional; details: Mus musculus
[3] = test system: SN12K1; experiment: cells; assay type: functional; details: Homo sapiens
[4] = test system: P388/ADR; experiment: cells; assay type: functional; details: Mus musculus
[5] = NIH-3T3 fibroblast cytotoxicity, dose response, cytotoxicity control, cell-based, fluorescence, Alamar Blue, secondary assay (AID 2327); assay type: functional;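 note: NIH-3T3 mouse fibroblasts cultured with fluconazole at 8 µg/mL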
[6] = C. albicans growth with fluconazole, confirmation, fluorescence, retest (AID 2467); assay type: functional, cell-based
[7] = biological target: Cytochrome P450 2C19 (Homo sapiens, UniProt P33261); experiment: Cytochrome panel assay with activity outcomes. Panel member name: p450-cyp2c19 Compounds with AC50 equal or less than 10 uM are considered active; assay type: functional
Sequence of Cytochrome P450 2C19 (P33261 whole entry): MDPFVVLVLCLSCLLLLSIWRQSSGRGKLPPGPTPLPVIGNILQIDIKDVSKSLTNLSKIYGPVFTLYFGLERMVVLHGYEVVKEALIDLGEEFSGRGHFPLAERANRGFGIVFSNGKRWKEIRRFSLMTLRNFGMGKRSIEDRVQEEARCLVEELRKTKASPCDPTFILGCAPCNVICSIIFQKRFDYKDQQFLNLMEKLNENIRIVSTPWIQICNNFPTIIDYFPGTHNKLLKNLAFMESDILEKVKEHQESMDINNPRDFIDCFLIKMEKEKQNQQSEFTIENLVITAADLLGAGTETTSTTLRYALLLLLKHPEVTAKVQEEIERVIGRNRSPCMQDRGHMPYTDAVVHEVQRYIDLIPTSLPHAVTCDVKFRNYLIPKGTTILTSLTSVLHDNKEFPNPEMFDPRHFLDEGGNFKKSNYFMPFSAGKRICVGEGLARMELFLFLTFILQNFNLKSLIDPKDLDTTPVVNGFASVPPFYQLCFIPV

[8] = test system: Vero; experiment: cells; assay type: functional; details: Chlorocebus sabaeus
[9] = biological target: T2, CAAX prenyl protease 2 (Saccharomyces cerevisiae S288c, UniProt Q03530); assay type: biochemical
T2 sequence (Q03530 whole entry): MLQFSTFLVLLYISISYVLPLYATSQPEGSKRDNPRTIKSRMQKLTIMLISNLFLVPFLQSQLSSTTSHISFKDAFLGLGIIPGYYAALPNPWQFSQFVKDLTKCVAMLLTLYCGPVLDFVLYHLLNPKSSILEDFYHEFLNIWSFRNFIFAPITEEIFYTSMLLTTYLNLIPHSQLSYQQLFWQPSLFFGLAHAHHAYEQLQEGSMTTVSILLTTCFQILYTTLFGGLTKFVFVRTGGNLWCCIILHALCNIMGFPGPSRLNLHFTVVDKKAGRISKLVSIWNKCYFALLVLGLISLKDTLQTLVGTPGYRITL

[10] = biological target: Cytochrome P450 2C9 (Homo sapiens, UniProt P11712)
Sequence of Cytochrome P450 2C9 (P11712 whole entry): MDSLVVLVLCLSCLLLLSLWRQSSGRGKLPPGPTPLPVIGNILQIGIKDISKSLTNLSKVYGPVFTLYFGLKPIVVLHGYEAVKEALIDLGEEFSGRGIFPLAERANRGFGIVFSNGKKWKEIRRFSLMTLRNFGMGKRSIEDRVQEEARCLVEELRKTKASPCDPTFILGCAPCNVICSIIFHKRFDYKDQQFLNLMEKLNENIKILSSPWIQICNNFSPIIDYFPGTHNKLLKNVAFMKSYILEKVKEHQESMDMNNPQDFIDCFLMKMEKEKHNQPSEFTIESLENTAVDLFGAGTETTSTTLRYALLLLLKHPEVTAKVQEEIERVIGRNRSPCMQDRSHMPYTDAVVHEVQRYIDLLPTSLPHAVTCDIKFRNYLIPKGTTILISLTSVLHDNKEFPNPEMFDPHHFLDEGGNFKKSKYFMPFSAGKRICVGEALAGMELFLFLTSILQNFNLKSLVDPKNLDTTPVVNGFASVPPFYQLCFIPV

[11] = biological target: Cytochrome P450 2D6 (Homo sapiens, UniProt P10635);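 note: CYP2D6 member of a cytochrome P450 panel assay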
Sequence of Cytochrome P450 2D6 (P10635 whole entry): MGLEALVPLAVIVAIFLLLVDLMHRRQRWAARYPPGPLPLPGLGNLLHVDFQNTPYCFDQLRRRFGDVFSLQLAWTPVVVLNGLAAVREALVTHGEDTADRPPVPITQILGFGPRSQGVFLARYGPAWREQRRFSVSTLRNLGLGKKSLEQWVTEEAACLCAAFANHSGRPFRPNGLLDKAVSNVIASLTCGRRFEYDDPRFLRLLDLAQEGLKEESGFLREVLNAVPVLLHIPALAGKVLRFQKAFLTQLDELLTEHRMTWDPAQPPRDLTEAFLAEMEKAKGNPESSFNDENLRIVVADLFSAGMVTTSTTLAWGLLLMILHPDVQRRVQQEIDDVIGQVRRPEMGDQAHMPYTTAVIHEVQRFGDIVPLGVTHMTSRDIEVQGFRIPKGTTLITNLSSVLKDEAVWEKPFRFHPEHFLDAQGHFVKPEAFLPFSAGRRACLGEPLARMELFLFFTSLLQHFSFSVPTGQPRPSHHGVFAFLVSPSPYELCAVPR

[12] = biological target: T3, Polyadenylate-binding protein 1 (Homo sapiens, UniProt P11940); experiment: PABP1 MLLE–PAM2 interaction inhibitors, dose response, miRNA deadenylation inhibitor project, biochemical, fluorescence polarization, Cy5-PAM2 peptide, secondary (AID 602260); assay type: functional; details: read-out: IC50_Mean
T3 sequence (P11940 whole entry): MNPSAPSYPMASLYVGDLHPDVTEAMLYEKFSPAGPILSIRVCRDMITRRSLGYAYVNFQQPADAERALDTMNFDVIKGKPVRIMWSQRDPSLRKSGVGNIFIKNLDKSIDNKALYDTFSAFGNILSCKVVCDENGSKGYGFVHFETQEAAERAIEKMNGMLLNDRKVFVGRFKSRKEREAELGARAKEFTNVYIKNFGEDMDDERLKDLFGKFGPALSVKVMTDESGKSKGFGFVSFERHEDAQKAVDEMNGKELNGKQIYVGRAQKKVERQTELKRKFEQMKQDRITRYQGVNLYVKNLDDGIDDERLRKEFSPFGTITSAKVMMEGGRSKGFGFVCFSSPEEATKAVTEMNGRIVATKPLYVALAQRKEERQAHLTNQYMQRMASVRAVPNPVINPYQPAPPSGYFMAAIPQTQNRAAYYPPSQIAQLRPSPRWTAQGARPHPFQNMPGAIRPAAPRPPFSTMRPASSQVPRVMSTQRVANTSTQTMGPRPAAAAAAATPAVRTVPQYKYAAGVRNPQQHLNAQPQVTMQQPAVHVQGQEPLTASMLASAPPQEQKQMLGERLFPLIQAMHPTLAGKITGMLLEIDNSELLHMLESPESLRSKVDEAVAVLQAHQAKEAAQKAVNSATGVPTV

[13] = biological target: T3, Polyadenylate-binding protein 1; experiment: PABP1 MLLE–PAM2 binding inhibitor potency, dose response, biochemical, fluorescence polarization, FITC-PAM2 peptide (AID 602259); assay type: functional; details: read-out: IC50_Mean
[14] = biological target: Heat shock protein HSP 90-alpha (Homo sapiens, UniProt P07900); assay type: functional, organism-based
[15] = Luminescence Cell-Based Dose Retest to Confirm Inhibitors of Cancer Stem Cells. [Related pubchem assays (depositor defined):AID2717, AID2721]; assay type: functional; details: Homo sapiens
[16] = inhibitors of intracellular T. cruzi replication, confirmation, NIH3T3 host cells, beta-gal luminescence (AID 2044); assay type: functional, cell-based;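 note: intracellular parasites grown in NIH/3T3 mouse fibroblasts as host cells; luminescent beta-galactosidase reporter signal from transgenic T. cruzi replicating inside host cells; inhibitors lower the luminescence signal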
[17] = biological target: T4, Streptokinase A (Streptococcus pyogenes serotype M1, UniProt P10520); experiment: S. pyogenes streptokinase expression inhibitors, potency, dose response, plasminogen activation absorbance, OD405 (AID 1914); assay type: functional, Streptococcus pyogenes M1 GAS;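 note: secreted streptokinase activity via plasminogen activation per viability signal from cell pellet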
T4 sequence (P10520 whole entry): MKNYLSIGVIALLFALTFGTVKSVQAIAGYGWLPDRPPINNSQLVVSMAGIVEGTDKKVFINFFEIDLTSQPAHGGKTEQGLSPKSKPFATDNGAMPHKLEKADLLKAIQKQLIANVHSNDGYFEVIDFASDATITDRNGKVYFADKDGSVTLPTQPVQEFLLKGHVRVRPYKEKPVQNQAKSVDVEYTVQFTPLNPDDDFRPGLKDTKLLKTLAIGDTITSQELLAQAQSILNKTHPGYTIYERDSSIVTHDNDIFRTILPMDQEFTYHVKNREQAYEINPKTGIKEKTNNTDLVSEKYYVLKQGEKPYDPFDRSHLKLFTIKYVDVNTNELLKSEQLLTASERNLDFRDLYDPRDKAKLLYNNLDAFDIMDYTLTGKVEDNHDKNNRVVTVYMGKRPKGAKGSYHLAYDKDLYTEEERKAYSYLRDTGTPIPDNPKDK

[18] = test system: Streptococcus; experiment: Group A Streptococcus viability loss, dose response, counter-screen for streptokinase expression inhibitor project, luminescence, BacTiterGlo (AID 1915); assay type: functional, organism-based;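 note: potency for reduction of bacterial viability or growth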
[19] = test system: Streptococcus sp. 'group A'; experiment: growth inhibition of control SK(-) GAS strain, dose response, counter-screen for streptokinase expression inhibitor project, luminescence, kanamycin, BacTiterGlo, confirmation (AID 1900); assay type: functional, organism-based
[20] = test system: H4; experiment: Luminescence Cell-Based Dose Response HTS to Identify Activators of 5'UTR Stem-Loop Driven Prion Protein mRNA Translation in H4 Neuroglioblastoma Cells. [Related pubchem assays: 1829 (Project Summary), 1814 (Primary HTS)]; assay type: functional; details: Homo sapiens
[21] = cytotoxicity toward NIH3T3 fibroblasts, dose response, counter-screen, cell-based, ATP luminescence, mouse fibroblasts (AID 2010); assay type: functional;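 note: cells exposed to compound for about 90 hours before reading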
[22] = cells; assay type: functional, cell-based
[23] = inhibitors of firefly luciferase expression or activity, dose response, H4 neuroglioma cells, luminescence (AID 1990); assay type: functional, cell-based
[24] = Luminescence Cell-Based Dose Response HTS to Identify Inhibitors of 5'UTR Stem-Loop Driven Prion Protein mRNA Translation in H4 Neuroglioblastoma Cells. [Related pubchem assays: 1827 (Project Summary), 1813 (Primary HTS)]; assay type: functional
[25] = test system: INS1; experiment: beta cell apoptosis inhibitors, cytokine rescue, dose response, luminescence, retest (AID 449756); assay type: functional, cell-based; details: Rattus norvegicus;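 note: cell death triggered by IL-1 beta plus TNF-alpha plus IFN-gamma mixture; protective hits raise ATP signal compared with cytokine alone wells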
[26] = cells; assay type: functional, cell-based; remark: listed apart in the source
[27] = inhibitors of SNCA 5'UTR-driven reporter translation, confirmation, H4 neuroglioma cells, luminescence (AID 1988); assay type: functional, cell-based
[28] = HepG2 cell cytotoxicity, dose response, cytotoxicity control for Shn3 inhibitor project, CellTiter-Glo, cherry-picked (AID 624134); assay type: functional, cell-based
[29] = control 3'UTR Renilla luciferase suppression, dose response, counter-screen for Shn3 inhibitor project, cell-based, Clone20-Shn3RL, cherry-picked (AID 624133); assay type: functional
[30] = Shn3 3'UTR reporter inhibitors, dose response, cell-based, Clone20 osteoblasts, firefly luciferase, cherry-picked (AID 624132); assay type: functional;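 note: firefly luciferase luminescence from reporter carrying the Shn3 3'UTR in osteoblasts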
[31] = test system: BJ; experiment: cytotoxicity toward BJ-TERT-LT-ST fibroblasts, dose response, cell-based, RAS-independent, luminescence (AID 1935); assay type: functional; details: Homo sapiens;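 note: BJ fibroblasts immortalized with TERT plus LT and ST oncogenes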
[32] = test system: BJ; experiment: cytotoxicity toward BJ-TERT fibroblasts, dose response, cell-based, RAS-independent, luminescence (AID 1933); assay type: functional; details: Homo sapiens
[33] = test system: BJ; experiment: cells; assay type: functional, cell-based; details: Homo sapiens
[34] = cytotoxicity toward DRD oncogenic fibroblasts, dose response, cell-based, non-viral oncogenic, luminescence (AID 1934); assay type: functional; details: Homo sapiens
[35] = biological target: Cytochrome P450 3A4 (Homo sapiens, UniProt P08684);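 note: CYP3A4 tested as one member of a cytochrome P450 panel screen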
Sequence of Cytochrome P450 3A4 (P08684 whole entry): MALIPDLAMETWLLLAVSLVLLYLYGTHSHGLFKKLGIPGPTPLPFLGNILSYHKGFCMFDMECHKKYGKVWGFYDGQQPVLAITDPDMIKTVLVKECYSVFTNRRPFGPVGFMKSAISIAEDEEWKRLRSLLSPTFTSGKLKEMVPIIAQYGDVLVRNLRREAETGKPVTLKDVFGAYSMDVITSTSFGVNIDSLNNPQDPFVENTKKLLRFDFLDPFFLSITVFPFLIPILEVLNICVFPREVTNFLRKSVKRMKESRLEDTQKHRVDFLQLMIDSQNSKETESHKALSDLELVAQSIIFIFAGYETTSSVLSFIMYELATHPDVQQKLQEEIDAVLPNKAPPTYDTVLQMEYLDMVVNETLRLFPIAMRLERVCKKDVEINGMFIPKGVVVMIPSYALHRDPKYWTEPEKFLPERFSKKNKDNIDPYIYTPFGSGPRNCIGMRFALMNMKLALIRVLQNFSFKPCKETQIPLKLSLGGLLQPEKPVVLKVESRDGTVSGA

Structure (SMILES): Cn1c(N2CCN(C(=O)Nc3ccc(F)cc3)CC2)nc2ccccc21
- EC50 [1]: 6.68 µM (active)

Structure (SMILES): Cc1cc(-c2ccc(/N=N/c3ccc4c(S(=O)(=O)O)cc(S(=O)(=O)O)c(N)c4c3O)c(C)c2)ccc1/N=N/c1ccc2c(S(=O)(=O)O)cc(S(=O)(=O)O)c(N)c2c1O
- GI50 [2]: > 100 µM (inactive)
- GI50 [3]: > 100 µM (inactive)
- GI50 [4]: > 100 µM (inactive)

Structure (SMILES): c1ccc(-c2ccc3c(c2)c2c4n3CCN=C4CCC2)cc1
- EC50 [5]: 50.1 µM (active)
- EC50 [6]: > 38 µM (not active)
- AC50 ([7]; read-out: AC50): 31.6 µM (inconclusive)
- CC50 [8]: 23.6 µM (active)

Structure (SMILES): CN(C)CCN(C(=O)c1ccc2ccccc2c1)c1nc2ccc(Br)cc2s1
- AC50 [9]: 4.77 µM (active)

Structure (SMILES): CCOC(=O)C1=C(N)N=C(N)C1=Nc1ccc(OC)cc1
- CC50 [8]: 11.1 µM (active)

Structure (SMILES): O=C(c1cnc2n(c1=O)CCS2)N1CCN(C(c2ccccc2)c2ccc(Cl)cc2)CC1 (centres undefined)
- AC50 [9]: 8.81 µM (active)

Structure (SMILES): CCCCCCCCCCCC1CCCC(C)N1 (centres undefined)
- GI50 [2]: 10.5 µM (inactive)
- GI50 [3]: 28.3 µM (inactive)
- GI50 [4]: 12.4 µM (inactive)

Structure (SMILES): COC(=O)CN1CN(c2ccccc2)C2(CCN(Cc3ccc4ccccc4c3)CC2)C1=O
- AC50 [10]: inconclusive
- AC50 [11]: 20 µM (inconclusive)

Structure (SMILES): C[C@@]12CC[C@H]3[C@@H]4CCC(=O)N[C@@]4(C)CC[C@@H]3[C@@]1(C)CC[C@H](OC(=O)Cc1ccc(N(CCCl)CCCl)cc1)C2
- GI50 [2]: 10.6 µM (inactive)
- GI50 [3]: 16.9 µM (inactive)
- GI50 [4]: 14.7 µM (inactive)

Structure (SMILES): CS(=O)(=O)c1ccc(Cn2c3c(c4cc(F)cc(F)c42)CCC[C@H]3CC(=O)O)cc1
- AC50 [10]: inconclusive

Structure (SMILES): Cc1cc2cc(CNC(=O)c3ccc(C)c([N+](=O)[O-])c3)ccc2[nH]1
- IC50 [12]: > 66 µM (inactive)
- IC50 [13]: > 66 µM (inactive)
- AC50 [14]: 11 µM (active)

Structure (SMILES): CC(C)c1ccc(-c2cc(C(=O)N3N=C(C(F)F)CC3(O)C(F)F)c3ccccc3n2)cc1 (centres undefined)
- AC50 [15]: 4.37 µM (active)
- EC50 [16]: 3.4 µM (active)
- EC50 [17]: > 150 µM (not active)
- AC50 [14]: 4.06 µM (active)
- EC50 [18]: 4.31 µM (active)
- EC50 [19]: 3.3 µM (active)
- EC50 [20]: 10 µM (active)
- EC50 [21]: > 60 µM (not active)

Structure (SMILES): Cc1ccc(C)c(OCCCCn2ccnc2)c1
- EC50 [16]: 2.04 µM (active)
- EC50 [1]: 4.73 µM (active)
- EC50 [21]: > 60 µM (not active)

Structure (SMILES): CCCC1COC(Cn2cncn2)(c2ccc(C)cc2)O1 (centres undefined)
- AC50 [14]: 0.73 µM (active)

Structure (SMILES): CCCN(CCC)CCCNc1ccc2nnc(-c3ccc(F)cc3)n2n1
- EC50 [1]: 0.596 µM (active)

Structure (SMILES): C[C@@H]1CCC[C@H](C)N1
- AC50 [10]: inconclusive
- AC50 [7]: inconclusive

Structure (SMILES): CCOC(=O)c1cnc(-n2nc(C)cc2C)nc1NNc1nc(-c2ccccc2)cc(-c2ccccc2)n1
- EC50 [22]: > 350 µM (not active)
- EC50 [23]: 8.48 µM (active)
- AC50 [15]: 1.88 µM (active)
- EC50 [24]: 12.6 µM (active)
- AC50 [25]: 2.69 µM (active)
- EC50 [26]: > 350 µM (not active)
- EC50 [27]: 8.83 µM (active)
- AC50 [28]: 48.5 µM (active)
- AC50 [29]: 7.39 µM (active)
- AC50 [30]: 3.84 µM (active)

Structure (SMILES): CC(/C=N/NC(=O)c1[nH]nc2c1CCC2)=C\c1ccccc1
- EC50 [31]: 1.03 µM (inconclusive)
- EC50 [32]: 346 nM (inconclusive)
- EC50 [33]: 25.5 µM (inconclusive)
- EC50 [34]: 430 nM (active)
- CC50 [8]: < 0.05 µM (active)

Structure (SMILES): O=C(c1cnn(-c2ccccc2)c1)c1ccc2ccccc2c1O
- AC50 [10]: inconclusive
- AC50 [35]: 17.8 µM (inconclusive)
- AC50 [11]: 7.08 µM (inconclusive)

Structure (SMILES): Nc1nc(N)c2nc(CNc3ccc(C(=O)N[C@H](CCC(=O)O)C(=O)O)cc3)cnc2n1
- AC50 [10]: inconclusive

Structure (SMILES): CCOC(=O)C1(CCc2ccccc2)CCN(Cc2csc(C(C)=O)c2)CC1
- EC50 [1]: 0.841 µM (active)

Structure (SMILES): O=C1CCCN1CCC1CCN(C2CC(=O)N(c3ccc(Cl)cc3)C2=O)CC1 (centres undefined)
- AC50 [14]: 7.56 µM (active)
